# Source: patent US20260001868A1, “HETEROCYCLIC COMPOUND CAPABLE OF INHIBITING PRMT5-MTA AND USE THEREOF” (Xizang Haisco Pharmaceutical Co., Ltd., priority 2022, published 2026)
# Read-outs that look alike come from different tables or passages of the source.
# Legend:
# [1] = test system: MIAPACA-2 cells; test: MIAPACA-2 cell proliferation inhibition experiment; format: cell-based
# Source text: (§1) The chemiluminescence readings were detected by a microplate reader.
# [2] = molecular target: PRMT5⋅MTA (Homo sapiens (Human), UniProt O14744); test: PRMT5 MTA enzyme activity test (Alpha detection); format: biochemical; settings: PRMT5/MEP50 1 nM with MTA 1 μM
# Sequence of PRMT5⋅MTA (O14744 whole entry): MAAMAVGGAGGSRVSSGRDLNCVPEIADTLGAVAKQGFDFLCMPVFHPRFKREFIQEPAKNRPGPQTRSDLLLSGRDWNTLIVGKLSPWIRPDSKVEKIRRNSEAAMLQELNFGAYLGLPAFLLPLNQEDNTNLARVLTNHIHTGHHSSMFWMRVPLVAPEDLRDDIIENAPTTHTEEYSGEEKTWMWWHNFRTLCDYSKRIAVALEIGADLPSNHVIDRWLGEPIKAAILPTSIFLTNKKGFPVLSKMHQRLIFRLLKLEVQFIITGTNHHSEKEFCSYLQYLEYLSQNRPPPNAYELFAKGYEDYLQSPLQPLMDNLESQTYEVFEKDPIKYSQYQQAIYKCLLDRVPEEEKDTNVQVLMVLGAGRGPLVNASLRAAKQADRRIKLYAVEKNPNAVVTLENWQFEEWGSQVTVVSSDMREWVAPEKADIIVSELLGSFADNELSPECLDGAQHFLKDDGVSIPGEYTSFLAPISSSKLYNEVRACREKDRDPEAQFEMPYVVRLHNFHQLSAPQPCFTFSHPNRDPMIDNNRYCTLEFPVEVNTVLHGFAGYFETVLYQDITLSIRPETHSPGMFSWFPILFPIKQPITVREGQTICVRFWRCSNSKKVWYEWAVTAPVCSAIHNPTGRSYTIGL
# Sequence of PRMT5⋅MTA (Q9BQA1 whole entry partner): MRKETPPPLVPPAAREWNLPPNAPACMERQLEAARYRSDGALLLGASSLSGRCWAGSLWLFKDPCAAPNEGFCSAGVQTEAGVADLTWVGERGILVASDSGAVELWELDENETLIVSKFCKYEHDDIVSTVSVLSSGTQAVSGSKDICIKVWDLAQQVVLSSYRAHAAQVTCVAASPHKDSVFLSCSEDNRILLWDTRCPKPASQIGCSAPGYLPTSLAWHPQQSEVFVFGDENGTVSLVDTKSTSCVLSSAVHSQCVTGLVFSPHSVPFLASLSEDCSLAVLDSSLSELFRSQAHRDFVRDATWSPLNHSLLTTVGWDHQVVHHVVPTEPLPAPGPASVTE
# Procedure: (§2) 1× test buffer (10 mM Tris, 1 mM DTT, 0.01% BSA, 0.01% Tween-20, adjusted to pH 8.0) was prepared. The test compound was dissolved in DMSO to prepare a 10 mM mother liquor, and the mother liquor was diluted to a 100-fold final concentration. 100 nL of the compound was added to each well of the administration group, and 100 nL of DMSO solution was added to blank wells and negative control wells. Then, 5 μL of a solution of PRMT5/MEP50 (BPS, Cat #31921) (final concentration: 1 nM) and MTA (final concentration: 1 μM) was added to the wells of the administration group and negative control wells, and 5 μL of 1× test buffer was added to the blank wells. Incubation was performed at room temperature for 15 minutes. […] 1× Epigenetics buffer (PerkinElmer, Cat #AL008F) was prepared and used for diluting acceptor microbeads and donor microbeads. 15 μL of acceptor microbeads (final concentration: 10 μg/mL; PerkinElmer, Cat #AL150C) and donor microbeads (final concentration: 10 μg/mL; PerkinElmer, Cat #AS106M) were added and incubated at room temperature for 1 hour in the dark. Then, detection was performed using the Alpha module of the reader Enspire microplate.
# Based on the obtained data, the inhibition rate was calculated in Excel according to: inhibition rate (%)=(maximum value negative control−detection signal value)/(maximum value negative control−minimum value blank control)×100, and IC50 values were fitted by using XL-Fit.
# [3] = molecular target: PRMT5/MEP50 (Homo sapiens (Human), UniProt O14744); test: PRMT5 enzyme activity test (Alpha detection); format: biochemical; settings: PRMT5/MEP50 1 nM, absence of MTA
# Sequence of PRMT5/MEP50 (O14744 whole entry): as the sequence (O14744 whole entry) above
# Sequence of PRMT5/MEP50 (Q9BQA1 whole entry partner): as the sequence (Q9BQA1 whole entry partner) above
# Procedure: as §2, with “a” for “a solution of”, “#31921) enzyme solution” for “#31921)”, “nM)” for “nM) and MTA (final concentration: 1 μM)”, “microplate. Based on the obtained data, the inhibition rate was calculated in Excel according to: inhibition rate (%)=(maximum value negative control−detection signal value)/(maximum value negative control−minimum value blank control)×100, and IC50 values were fitted by using XL-Fit.” for “microplate.”
# [4] = test system: HCT-116 cells; test: HCT-116 cell proliferation inhibition experiment; format: cell-based
# Source text: as §1
# [5] = test system: SDMA production in HCT-116 cells; test: SDMA detection in HCT-116 cells; format: cell-based; settings: 3 days incubation
# Procedure: HCT-116 cells were cultured in an RPMI 1640 culture medium (ATCC, Cat #30-2001; supplemented with 10% FBS and 1% double antibody) until the confluence reached about 85%, and then the cells were plated. The culture medium was discarded, and the cells were rinse with 1×PBS and digested by trypsin (Gibco, Cat #15400-054). When the cells became round and began to fall off, the digestion was terminated by adding the culture medium. The cells were pipetted, transferred to a sterile centrifuge tube and centrifuged at 1000 rpm for 3 minutes, and after the centrifugation, the supernatant was discarded. The cells were resuspended by adding the culture medium to the centrifuge tube and then counted. According to the counting results, the cell suspension was adjusted to an appropriate concentration and poured into a loading slot. 100 μL of the cell suspension was added to each well of the 96-well plate. The compound was dissolved in DMSO to 10 mM and stored for later use. […] 100 μL of the Immobilon Forte Western HRP substrate (Millipore, Cat #WBLUF0500) was added to each well and incubated with shaking for 15 minutes, followed by chemiluminescence detection using the BMG microplate reader. After data normalization (SDMA reading/SMD3 reading), Graphpad Prism 8.3.0 software was used to plot the data, and the IC50 value was calculated.
# [6] = set-up: species or system beagle dogs; settings: dog, in vivo
# Procedure: 10.1 Experimental animals: male beagle dogs, about 8-11 kg, 6 beagle dogs/compound, purchased from Beijing Marshall Biotechnology Co., Ltd.
# 10.2 Experimental method: On the day of the experiment, (6× number of test compounds (n)) beagle dogs were randomly divided into groups according to their body weights. The animals were fasted but with water available for 12 to 14 h one day before the administration and were fed 4 h after the administration. Administration was carried out according to Table 8.
# Before and after the administration, 1 mL of blood was taken from the jugular veins or limb veins, and placed in an EDTAK2 centrifuge tube. Centrifugation was performed at 5000 rpm at 4° C. for 10 min, and the plasma was collected. The blood collection time points for the intravenous administration group and intragastric administration group were 0 min, 5 min, 15 min, 30 min, 1 h, 2 h, 4 h, 6 h, 8 h, 10 h, 12 h and 24 h. Before analysis and detection, all samples were stored at −80° C., and a quantitative analysis of samples was performed using LC-MS/MS.
# [7] = test system: HCT-116 MTAP−/− cells
# Procedure: HCT-116 MTAP^−/− cells were cultured in an RPMI 1640 culture medium (ATCC, Cat #30-2001; supplemented with 10% FBS and 1% double antibody) until the confluence reached about 85%, and then the cells were plated. The culture medium was discarded, and the cells were washed with 1×PBS and digested by trypsin (Gibco, Cat #15400-054). When the cells became round and began to fall off, the digestion was terminated by adding the culture medium. The cells were pipetted, transferred to a sterile centrifuge tube and centrifuged at 1000 rpm for 3 minutes, and after the centrifugation, the supernatant was discarded. The cells were resuspended by adding the culture medium to the centrifuge tube and then counted. According to the counting results, the cell suspension was adjusted to an appropriate concentration and poured into a loading slot. The cell suspension was added to a first 96-well plate (Corning, Cat #3903), and added to 10 wells (as Day 0 wells) in a second 96-well plate. The compound was dissolved in DMSO to 10 mM and stored for later use. […] The chemiluminescence readings were detected by a microplate reader. The cell proliferation inhibition rate was calculated according to the following formula: [1−(25×T test−T0/25×T control−T0)]×100, and then the GI50 value of the compound for inhibiting cell proliferation was calculated using the DoseResp function and the Origin 9.2 software.
# [8] = test system: SDMA production in HCT-116 MTAP−/− cells; settings: read-out: HCT-116 MTAP−/− SDMA (IC50); 3 days incubation
# Procedure: HCT-116 MTAP−/− cells were cultured in an RPMI 1640 culture medium (ATCC, #30-2001; supplemented with 10% FBS and 1% double antibody) until the confluence reached about 85%, and then the cells were plated. The culture medium was discarded, and the cells were rinse with 1×PBS and digested by trypsin (Gibco, Cat #15400-054). When the cells became round and began to fall off, the digestion was terminated by adding the culture medium. The cells were pipetted, transferred to a sterile centrifuge tube and centrifuged at 1000 rpm for 3 minutes, and after the centrifugation, the supernatant was discarded. The cells were resuspended by adding the culture medium to the centrifuge tube and then counted. According to the counting results, the cell suspension was adjusted to an appropriate concentration and poured into a loading slot. 100 μL of the cell suspension was added to each well of the 96-well plate. The compound was dissolved in DMSO to 10 mM and stored for later use. […] 100 μL of the Immobilon Forte Western HRP substrate (Millipore, Cat #WBLUF0500) was added to each well and incubated with shaking for 15 minutes, followed by chemiluminescence detection using the BMG microplate reader. After data normalization (SDMA reading/SMD3 reading), Graphpad Prism 8.3.0 software was used to plot the data, and the IC50 value was calculated.
# [9] = day 5, read-out: MIAPACA-2 (day 5 GI50)
# [10] = day 10, read-out: MIAPACA-2 (day 10 GI50)
# [11] = Homo sapiens, MIA PaCa-2, 120 h, read-out: MIAPACA-2 (day 5 GI50)
Compound,"GI50 [1, 9]","GI50 [1, 10]","GI50 [1, 11]",IC50 ([2]; read-out: PRMT5•MTA),IC50 [3],other results
"Cn1ncc(-c2ccc3c(=O)[nH]c(CN)nc3c2)c1-c1c(F)c(Cl)cc(OC2CC2)c1C#N [Compound 11, (2S)-2-(4-(2-(aminomethyl)-4-oxo-3,4-dihydroquinazolin-7-yl)-1-methyl-1H-pyrazol-5-yl)-4-chloro-6-cyclopropoxy-3-fluorobenzonitrile]",< 50 nM,< 50 nM,–,–,–,–
"Cn1ncc(-c2ccc3c(=O)[nH]c(CN)nc3c2)c1-c1c(F)c(Cl)cc(OC2CC2)c1C#N [Compound 5, 2-(4-(2-(aminomethyl)-4-oxo-3,4-dihydroquinazolin-7-yl)-1-methyl-1H-pyrazol-5-yl)-4-chloro-6-cyclopropoxy-3-fluorobenzonitrile]",–,–,< 50 nM,–,–,"GI50 ([1]; Homo sapiens, MIA PaCa-2, 240 h, read-out: MIAPACA-2 (day 10 GI50)): < 50 nM"
"Cn1ncc(-c2ccc3c(=O)[nH]c(CN)nc3c2)c1-c1c(F)c(Cl)cc(OC2(C)CC2)c1C#N [Compound 14, (2S)-2-(4-(2-(aminomethyl)-4-oxo-3,4-dihydroquinazolin-7-yl)-1-methyl-1H-pyrazol-5-yl)-4-chloro-3-fluoro-6-(1-methylcyclopropoxy)benzonitrile]",< 50 nM,–,–,–,–,–
"Cn1ncc(-c2cc(N3CCC3)c3c(=O)[nH]nc(CN)c3c2)c1-c1c(F)c(Cl)cc(OC2CC2)c1C#N [Compound 22, 2-(4-(4-(aminomethyl)-8-(azetidin-1-yl)-1-oxo-1,2-dihydrophthalazin-6-yl)-1-methyl-1H-pyrazol-5-yl)-4-chloro-6-cyclopropoxy-3-fluorobenzonitrile]",–,–,< 50 nM,–,–,–
"C=Cc1cc(-c2cnn(C)c2-c2c(F)c(Cl)cc(OC3(C)CC3)c2C#N)cc2c(CN)n[nH]c(=O)c12 [Compound 30, (2R)-2-(4-(4-(aminomethyl)-1-oxo-8-vinyl-1,2-dihydrophthalazin-6-yl)-1-methyl-1H-pyrazol-5-yl)-4-chloro-3-fluoro-6-(1-methylcyclopropoxy)benzonitrile]",< 50 nM,< 50 nM,–,< 1 nM,1 to 10 nM,"IC50 ([2]; read-out: IC50 value for PRMT5⋅MTA): 0.8 nM; GI50 ([4]; day 5, read-out: HCT-116 (day 5 GI50)): > 500 nM; GI50 ([4]; day 10, read-out: HCT-116 (day 10 GI50)): > 500 nM; IC50 [5]: 499 nM; CL ([6]; iv, 5 mg/kg): 0.313 mL/min/kg; AUC0-t ([6]; po, 10 mg/kg): 178.458 µg·h/mL; T1/2 ([6]; po, 10 mg/kg): 16.1 h; GI50 ([7]; read-out: HCT-116 MTAP−/− (day 5 GI50), day 5): 38.2 nM; GI50 ([7]; read-out: HCT-116 MTAP−/− (day 10 GI50), day 10): 19.9 nM; IC50 [8]: 3.39 nM"
"Cn1ncc(-c2ccc3c(=O)[nH]cc(CN)c3c2)c1-c1c(F)c(Cl)cc(OC2CC2)c1C#N [Compound 1, 2-(4-(4-(aminomethyl)-1-oxo-1,2-dihydroisoquinolin-6-yl)-1-methyl-1H-pyrazol-5-yl)-4-chloro-6-cyclopropoxy-3-fluorobenzonitrile]",–,–,–,1 to 10 nM,10 to 50 nM,–
